According to PubChem BioAssay AID1845210 (Molecular Pharmacology Branch, DTP, NCI, 2023):
Values joined by “and” are separate entries in the source; they are usually repeats but may differ in a detail not shown here. Identical values can stand only once.

Test system: NCI-H226 complex tumor spheroids, viability
Test: Anticancer human tumor NCI-H226 cell line growth inhibition;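 further: spheroids exposed to compound for 7 days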;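 on viability, T/C: 100% = DMSO vehicle control viability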
Settings: for viability, T/C: stronger effect = lower value
Outline: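 Complex spheroids of malignant cells with endothelial cells and mesenchymal stem cells; agents alone or combined, from near clinical Cmax (or 10 microM if unknown) down in half-log steps, 0.25% DMSO final.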

[1] = curve of first compound, second compound 0.003 µM
[2] = curve of first compound, second compound 0.00949 µM
[3] = curve of first compound, second compound 0.03 µM
[4] = curve of first compound, second compound 0.0949 µM
[5] = curve of first compound, second compound 0.3 µM
[6] = curve of first compound, second compound 1 µM
[7] = curve of first compound, second compound 3.16 µM
[8] = curve of first compound, second compound 10 µM
[9] = curve of first compound, second compound 31.6 µM
[10] = curve of first compound, second compound 100 µM
[11] = second compound 1 µM, first compound 0.0316 µM
[12] = second compound 1 µM, first compound 0.1 µM
[13] = second compound 1 µM, first compound 0.316 µM
[14] = second compound 1 µM, first compound 1 µM
[15] = second compound 1 µM, first compound 3.16 µM
[16] = second compound 1 µM, first compound 10 µM
[17] = second compound 3.16 µM, first compound 0.0316 µM
[18] = second compound 3.16 µM, first compound 0.1 µM
[19] = second compound 3.16 µM, first compound 0.316 µM
[20] = second compound 3.16 µM, first compound 1 µM
[21] = second compound 3.16 µM, first compound 3.16 µM
[22] = second compound 3.16 µM, first compound 10 µM
[23] = second compound 10 µM, first compound 0.0316 µM
[24] = second compound 10 µM, first compound 0.1 µM
[25] = second compound 10 µM, first compound 0.316 µM
[26] = second compound 10 µM, first compound 1 µM
[27] = second compound 10 µM, first compound 3.16 µM
[28] = second compound 10 µM, first compound 10 µM
[29] = second compound 31.6 µM, first compound 0.0316 µM
[30] = second compound 31.6 µM, first compound 0.1 µM
[31] = second compound 31.6 µM, first compound 0.316 µM
[32] = second compound 31.6 µM, first compound 1 µM
[33] = second compound 31.6 µM, first compound 3.16 µM
[34] = second compound 31.6 µM, first compound 10 µM
[35] = second compound 100 µM, first compound 0.0316 µM
[36] = second compound 100 µM, first compound 0.1 µM
[37] = second compound 100 µM, first compound 0.316 µM
[38] = second compound 100 µM, first compound 1 µM
[39] = second compound 100 µM, first compound 3.16 µM
[40] = second compound 100 µM, first compound 10 µM

Cc1sc2c(c1C)C(c1ccc(Cl)cc1)=NC(CC(=O)Nc1ccc(O)cc1)c1nnc(C)n1-2 (configuration not stated) + CC[C@@]1(O)C(=O)OCc2c1cc1n(c2=O)Cc2cc3c(CN(C)C)c(O)ccc3nc2-1 was tested, and the IC50 [1] was 1.46 µM, the IC50 [2] was 1.29 µM and the IC50 [3] was 0.431 µM. The IC50 [4] was 0.094 µM, the IC50 [5] was less than 0.00949 µM and the viability, T/C (second compound 0.003 µM, first compound 0.00949 µM) was 71.9%. For the same molecule, the viability, T/C (second compound 0.003 µM, first compound 0.03 µM) was 68.5%, the viability, T/C (second compound 0.003 µM, first compound 0.0949 µM) was 65.8% and the viability, T/C (second compound 0.003 µM, first compound 0.3 µM) was 60.2%. It also gave a viability, T/C (second compound 0.003 µM, first compound 0.949 µM) of 54%, a viability, T/C (second compound 0.003 µM, first compound 3 µM) of 43.9% and a viability, T/C (second compound 0.00949 µM, first compound 0.00949 µM) of 69.9%. The viability, T/C (second compound 0.00949 µM, first compound 0.03 µM) was 62%, the viability, T/C (second compound 0.00949 µM, first compound 0.0949 µM) was 68.9% and the viability, T/C (second compound 0.00949 µM, first compound 0.3 µM) was 61%. It also gave a viability, T/C (second compound 0.00949 µM, first compound 0.949 µM) of 50%, a viability, T/C (second compound 0.00949 µM, first compound 3 µM) of 43% and a viability, T/C (second compound 0.03 µM, first compound 0.00949 µM) of 63.9%. For the same molecule, the viability, T/C (second compound 0.03 µM, first compound 0.03 µM) was 57.9%, the viability, T/C (second compound 0.03 µM, first compound 0.0949 µM) was 53.9% and the viability, T/C (second compound 0.03 µM, first compound 0.3 µM) was 54.2%. The viability, T/C (second compound 0.03 µM, first compound 0.949 µM) was 45.4%, the viability, T/C (second compound 0.03 µM, first compound 3 µM) was 44.6% and the viability, T/C (second compound 0.0949 µM, first compound 0.00949 µM) was 71.3%. It also gave a viability, T/C (second compound 0.0949 µM, first compound 0.03 µM) of 52.9%, a viability, T/C (second compound 0.0949 µM, first compound 0.0949 µM) of 50.5% and a viability, T/C (second compound 0.0949 µM, first compound 0.3 µM) of 54.9%. The viability, T/C (second compound 0.0949 µM, first compound 0.949 µM) was 43%, the viability, T/C (second compound 0.0949 µM, first compound 3 µM) was 41.6% and the viability, T/C (second compound 0.3 µM, first compound 0.00949 µM) was 50.3%. For the same molecule, the viability, T/C (second compound 0.3 µM, first compound 0.03 µM) was 45.8%, the viability, T/C (second compound 0.3 µM, first compound 0.0949 µM) was 43.6% and the viability, T/C (second compound 0.3 µM, first compound 0.3 µM) was 44.4%. The viability, T/C (second compound 0.3 µM, first compound 0.949 µM) was 37% and the viability, T/C (second compound 0.3 µM, first compound 3 µM) was 27.1%.

With COc1ccc([C@@H](O)c2cc(-c3ncnc4cc(N5CCOCC5)ccc34)c(F)cc2Cl)nn1 + Cn1nnc2c(C(N)=O)ncn2c1=O the IC50 [6] was 4.71 µM, the IC50 [7] was 2.97 µM and the IC50 [8] was 3.43 µM. For the same molecule, the IC50 [9] was 3.69 µM, the IC50 [10] was 4.53 µM and the viability, T/C [11] was 94.3%. It also gave a viability, T/C [12] of 100%, a viability, T/C [13] of 89% and a viability, T/C [14] of 66.8%. For the same molecule, the viability, T/C [15] was 60.8%, the viability, T/C [16] was 37.5% and the viability, T/C [17] was 95.2%. For the same molecule, the viability, T/C [18] was 101%, the viability, T/C [19] was 92.2% and the viability, T/C [20] was 67.9%. It also gave a viability, T/C [21] of 52.1%, a viability, T/C [22] of 38.1% and a viability, T/C [23] of 86.9%. For the same molecule, the viability, T/C [24] was 89.4%, the viability, T/C [25] was 90.4% and the viability, T/C [26] was 73.8%. The viability, T/C [27] was 52.1%, the viability, T/C [28] was 34.4% and the viability, T/C [29] was 98.5%. It also gave a viability, T/C [30] of 91.8%, a viability, T/C [31] of 91% and a viability, T/C [32] of 67.5%. It also gave a viability, T/C [33] of 54.2%, a viability, T/C [34] of 36.7% and a viability, T/C [35] of 111%. The viability, T/C [36] was 107%, the viability, T/C [37] was 95.8% and the viability, T/C [38] was 75.9%. For the same molecule, the viability, T/C [39] was 56.1% and the viability, T/C [40] was 38.1%.

CC1COCCN1c1cc(-c2ccnn2C)c2ccnc(-c3ccn[nH]3)c2n1 (configuration not stated) was tested, and the viability, T/C (compound 0.0316 µM) was 93.9% and 94.7% and 94.8%, the viability, T/C (compound 0.1 µM) was 102% and 91% and 82.2% and the viability, T/C (compound 0.316 µM) was 86% and 74% and 68.6%. For the same molecule, the viability, T/C (compound 1 µM) was 60.4% and 53.3% and 47.3%, the viability, T/C (compound 3.16 µM) was 52.5% and 44.6% and 45.4% and the viability, T/C (compound 10 µM) was 42.9% and 39.2% and 35.2%. The IC50 (curve of compound) was 2.74 µM and 1.5 µM and 1.13 µM.

COc1cc(C)[nH]c(=O)c1CN1CCc2c(Cl)cc(C(OC)C3COC3)c(Cl)c2C1=O (configuration not stated) + CC[C@@]1(O)C(=O)OCc2c1cc1n(c2=O)Cc2cc3c(CN(C)C)c(O)ccc3nc2-1 was tested, and the IC50 [1] was greater than 10 µM, the IC50 [2] was greater than 10 µM and the IC50 [3] was greater than 10 µM. For the same molecule, the IC50 [4] was greater than 10 µM, the IC50 [5] was greater than 10 µM and the viability, T/C (second compound 0.003 µM, first compound 0.0316 µM) was 93.7%. For the same molecule, the viability, T/C (second compound 0.003 µM, first compound 0.1 µM) was 123%, the viability, T/C (second compound 0.003 µM, first compound 0.316 µM) was 110% and the viability, T/C (second compound 0.003 µM, first compound 1 µM) was 122%. The viability, T/C (second compound 0.003 µM, first compound 3.16 µM) was 112%, the viability, T/C (second compound 0.003 µM, first compound 10 µM) was 98.5% and the viability, T/C (second compound 0.00949 µM, first compound 0.0316 µM) was 88.6%. The viability, T/C (second compound 0.00949 µM, first compound 0.1 µM) was 102%, the viability, T/C (second compound 0.00949 µM, first compound 0.316 µM) was 100% and the viability, T/C (second compound 0.00949 µM, first compound 1 µM) was 95.8%. For the same molecule, the viability, T/C (second compound 0.00949 µM, first compound 3.16 µM) was 99.2%, the viability, T/C (second compound 0.00949 µM, first compound 10 µM) was 97.3% and the viability, T/C (second compound 0.03 µM, first compound 0.0316 µM) was 86.4%. It also gave a viability, T/C (second compound 0.03 µM, first compound 0.1 µM) of 87%, a viability, T/C (second compound 0.03 µM, first compound 0.316 µM) of 80.6% and a viability, T/C (second compound 0.03 µM, first compound 1 µM) of 92.7%. The viability, T/C (second compound 0.03 µM, first compound 3.16 µM) was 92.6%, the viability, T/C (second compound 0.03 µM, first compound 10 µM) was 87.4% and the viability, T/C (second compound 0.0949 µM, first compound 0.0316 µM) was 97.3%. For the same molecule, the viability, T/C (second compound 0.0949 µM, first compound 0.1 µM) was 93.1%, the viability, T/C (second compound 0.0949 µM, first compound 0.316 µM) was 86.4% and the viability, T/C (second compound 0.0949 µM, first compound 1 µM) was 92.9%. For the same molecule, the viability, T/C (second compound 0.0949 µM, first compound 3.16 µM) was 88.3%, the viability, T/C (second compound 0.0949 µM, first compound 10 µM) was 81.6% and the viability, T/C (second compound 0.3 µM, first compound 0.0316 µM) was 71.4%. For the same molecule, the viability, T/C (second compound 0.3 µM, first compound 0.1 µM) was 73.3%, the viability, T/C (second compound 0.3 µM, first compound 0.316 µM) was 72% and the viability, T/C (second compound 0.3 µM, first compound 1 µM) was 75.2%. For the same molecule, the viability, T/C (second compound 0.3 µM, first compound 3.16 µM) was 69.9% and the viability, T/C (second compound 0.3 µM, first compound 10 µM) was 72.9%.

Work on CC1COCCN1c1cc(-c2ccnn2C)c2ccnc(-c3ccn[nH]3)c2n1 (configuration not stated) + Cn1nnc2c(C(N)=O)ncn2c1=O yielded an IC50 [6] of 1.89 µM, an IC50 [7] of 1.75 µM and an IC50 [8] of 2.01 µM. It also gave an IC50 [9] of 2.02 µM, an IC50 [10] of 2.41 µM and a viability, T/C [11] of 88.1%. It also gave a viability, T/C [12] of 86.8%, a viability, T/C [13] of 79.3% and a viability, T/C [14] of 59.6%. It also gave a viability, T/C [15] of 42.4%, a viability, T/C [16] of 35.9% and a viability, T/C [17] of 98.8%. For the same molecule, the viability, T/C [18] was 86.1%, the viability, T/C [19] was 78.4% and the viability, T/C [20] was 50.8%. The viability, T/C [21] was 47.8%, the viability, T/C [22] was 34.9% and the viability, T/C [23] was 105%. For the same molecule, the viability, T/C [24] was 88.6%, the viability, T/C [25] was 73% and the viability, T/C [26] was 59.3%. The viability, T/C [27] was 43.1%, the viability, T/C [28] was 36.1% and the viability, T/C [29] was 90.2%. It also gave a viability, T/C [30] of 91.5%, a viability, T/C [31] of 74.7% and a viability, T/C [32] of 58.3%. It also gave a viability, T/C [33] of 46.1%, a viability, T/C [34] of 37.9% and a viability, T/C [35] of 116%. For the same molecule, the viability, T/C [36] was 107%, the viability, T/C [37] was 92.9% and the viability, T/C [38] was 61.5%. It also gave a viability, T/C [39] of 46.2% and a viability, T/C [40] of 42.5%.
